Measured values as given in patent publication EP0107208A1, “1,1,2-Triphenyl-but-1-ene derivatives, process for their preparation and their use as medicines” (Klinge Pharma GmbH, priority 1982, dated 1984).
Values joined by “and” are separate entries in the source; they are usually repeats but may differ in a detail not shown here. Equal values may be shown once. Read-outs that look alike come from different tables or passages of the source.

Experiments:
ZR-75-1-Zellen [1] = assay: Inhibition of RNA synthesis in isolated human mammary tumour cells (incorporation of labelled uridine); assay type: cell-based; settings: for inhibition at 1 µM / inhibition at 4 µM / inhibition at 0.1 µM: Homo sapiens, ZR-75-1, 48 h; for Prozentuale Hemmung der RNS-Synthese: 2880 min
Excerpt: […] positive [ER +] Mammatumor-Zellen aus Patienten zu isolieren und in vitro kontinuierlich zu […] sog. […] in vivo beobachteten morphologischen […] und […] somit […] zur Testung von Antiestrogenen dar,da direkte Aussagen über den Einfluß auf den in vivo zu […]. […] Der Einfluß der beanspruchten Verbindunger. auf das Wachstum dieser Zellen wurde über den Einbau von […] bzw. Thymidin nach der Methode von Lippman, M. et al kontrolliert. […] Thymidin versetzt und nach einer Stunde die Einbaurate des markierten Materials in den Zellen bestimmt.

Estradiolrezeptor = biological target: T1, Estradiolrezeptor (Oryctolagus cuniculus, UniProt G1SML6); assay: Binding affinity to the estradiol receptor: displacement of [3H]-estradiol in rabbit uterus cytosol; set-up: species or system Kaninchen (Neuseeländer); settings: molar concentration displacing 50% [3H]-Estradiol from the receptor, 18 h at 4° C, 2.5 ×10^-9 M [3H]-Estradiol, read-out: ED50% (the source's name)
T1 construct: Das Uteruscytosol von weiblichen, präpubertären, weißen 2 kg schweren Kaninchen (Neuseeländer); from tissue; host or cells: uterus cytosol of female prepubertal New Zealand white rabbits
T1 sequence (G1SML6 1-598): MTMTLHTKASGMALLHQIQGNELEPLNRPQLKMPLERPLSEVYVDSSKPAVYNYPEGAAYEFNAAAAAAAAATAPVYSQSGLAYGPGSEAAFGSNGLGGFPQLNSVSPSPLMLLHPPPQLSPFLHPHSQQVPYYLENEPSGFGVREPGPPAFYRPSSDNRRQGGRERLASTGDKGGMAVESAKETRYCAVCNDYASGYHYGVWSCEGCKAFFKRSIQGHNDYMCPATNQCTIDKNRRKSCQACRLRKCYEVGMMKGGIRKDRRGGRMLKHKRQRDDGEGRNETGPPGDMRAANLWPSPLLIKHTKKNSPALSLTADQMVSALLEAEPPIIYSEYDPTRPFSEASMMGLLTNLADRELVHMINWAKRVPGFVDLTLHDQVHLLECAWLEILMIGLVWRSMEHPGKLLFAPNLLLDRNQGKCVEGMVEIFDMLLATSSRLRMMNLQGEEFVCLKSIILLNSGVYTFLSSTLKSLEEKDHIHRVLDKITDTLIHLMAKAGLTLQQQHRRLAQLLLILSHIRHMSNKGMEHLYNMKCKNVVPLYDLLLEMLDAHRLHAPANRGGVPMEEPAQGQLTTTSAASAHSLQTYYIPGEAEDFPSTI
Excerpt: Die Messung der Eindungsaffinität zum Estradiolrezeptor erfolgte nach der Eethode von N. Devleeschouwer, G. Leclercq, A. Danguy und J. C. Heuson LEurop. J. Cancer, 14 ,721 - 723 (197o)].
Testsubstanz verschiedener Konzentration inkubiert.Die Bindungsaffinität zum Estradiolrezeptor wird ausgedrückt durch die aen. […] Testsubstanz, welche eine 5C-prcz.

ZR-75-1-Zellen [2] = assay: Inhibition of RNA synthesis in ZR-75-1 cells in the presence of 17-β-estradiol; assay type: cell-based; settings: Homo sapiens, compound 1 x 10^-6 [M] + 17-β-Estradiol 1 x 10^-8 [M], 48 h incubation, read-out: Prozentuale Hemmung der RNS-Synthese
Excerpt: Zur […] vivo wurde die Potenz der antiestrogenen Wirkung der beanspruchten Verbindungen in Gegenwart eines Estrogens geprüft. […] Thymidin hinzugefügt und nach einer Stunde die Einbaurate des markierten Materials in gen Zellen bestimmt.[Tab.4]

[3] = read-out: Prozentuale Hemmung der RNS-Synthese

Row | Structure (SMILES) | inhibition at 1 µM (ZR-75-1-Zellen [1]; read-out: Prozentuale Hemmung der RNS-Synthese, substance concentration 1 x 10^-6[M], 48 h incubation, Tamoxifen run in each experiment) [%] | inhibition at 4 µM (ZR-75-1-Zellen [1]; read-out: Prozentuale Hemmung der RNS-Synthese, substance concentration 4 x 10^-6[M], 48 h incubation, Tamoxifen run in each experiment) [%] | Prozentuale Hemmung der RNS-Synthese (ZR-75-1-Zellen [1]; substance concentration 1 x 10^-6[M], 48 h incubation, Tamoxifen run in each experiment, 1 µM) | Prozentuale Hemmung der RNS-Synthese (ZR-75-1-Zellen [1]; substance concentration 1 x 10^-6[M], 48 h incubation, Tamoxifen run in each experiment, listed as Taxoxifen, 1 µM) [%] | Prozentuale Hemmung der RNS-Synthese (ZR-75-1-Zellen [1]; substance concentration 1 x 10^-7[M], 48 h incubation, Tamoxifen run in each experiment, 0.1 µM) | Prozentuale Hemmung der RNS-Synthese (ZR-75-1-Zellen [1]; substance concentration 1 x 10^-7[M], 48 h incubation, Tamoxifen run in each experiment, 0.1 µM, listed as Taxoxifen) [%] | Prozentuale Hemmung der RNS-Synthese (ZR-75-1-Zellen [1]; substance concentration 4 x 10^-6[M], 48 h incubation, Tamoxifen run in each experiment, 4 µM) [%] | Prozentuale Hemmung der RNS-Synthese (ZR-75-1-Zellen [1]; substance concentration 4 x 10^-6[M], 48 h incubation, Tamoxifen run in each experiment, listed as Taxoxifen, 4 µM) [%] | inhibition at 0.1 µM (ZR-75-1-Zellen [1]; [3]) [%] | inhibition at 1 µM (ZR-75-1-Zellen [1]; [3]) [%] | inhibition at 4 µM (ZR-75-1-Zellen [1]; [3]) [%] | IC50 (Estradiolrezeptor) [nM] | inhibition at 1 µM (ZR-75-1-Zellen [2]) [%]
1 | CC/C(=C(\c1ccccc1)c1ccc(OCCN(C)C)cc1)c1ccccc1 [Tamoxifen, (Z)-1-[4'-(2-Dimetrylaminoethcxy)phenyl]-1,2-diphenyl-but-1-en, reference compound] | 43 | 99 | 44% and 39% and 59% | 46 | 29% and 16% | 2 | 100 | 93 | – | – | – | – | –
2 | CC/C(=C(/c1ccc(OCCN(C)C)cc1)c1cccc(O)c1)c1cccc(C)c1 [Verbindung 1, (E)-1-[4'-(2-Dimethylaminoethoxy)phenyl]-1-(3'-hydroxyphenyl)-2-(3'-methylphenyl)-but-1-en] | – | – | – | – | – | – | – | – | 47 | 74 | 100 | 35 | 74
3 | CC/C(=C(/c1ccc(OCCN(C)C)cc1)c1cccc(O)c1)c1ccc(C)cc1 [Verbindung 2] | – | – | – | – | – | – | – | – | 42 | 62 | 100 | 73 | 58
4 | CC/C(=C(/c1ccc(OCCN(C)C)cc1)c1cccc(O)c1)c1ccc(OC)cc1 [Verbindung 3, (E)-1-[4'-(2-Dimethylaminoethoxy)phenyl]-1-(3'-hydroxyphenyl)-2-(4'-methoxyphenyl)-but-1-en] | – | – | – | – | – | – | – | – | 36 | 68 | 100 | 28 | 65
5 | CC/C(=C(/c1ccc(OCCN(C)C)cc1)c1cccc(O)c1)c1cccc(O)c1 [Verbindung 4, (E)-1-[4'-(2-Dimethylaminoethoxy)phenyl]-1,2-bis-(3'-hydroxyphenyl)-but-1-en] | – | – | – | – | – | – | – | – | 33 | 73 | 100 | – | 79
6 | CC/C(=C(/c1ccc(OCCN(C)C)cc1)c1cccc(O)c1)c1ccc(Cl)cc1 [Verbindung 5] | – | – | – | – | – | – | – | – | 41 | 61 | 100 | 85 | –
7 | CC/C(=C(/c1ccc(OCCN(C)C)cc1)c1cccc(O)c1)c1ccc(Br)cc1 [Verbindung 6, (E)-2-(4'-Bromphenyl)-1-[4'-(2-dimethylaminoethoxy)phenyl]-1-(3'-hydroxyphenyl)-but-l-en] | – | – | – | – | – | – | – | – | 47 | 70 | 100 | – | 74
8 | CC/C(=C(/c1ccc(OCCN(CC)CC)cc1)c1cccc(O)c1)c1ccc(OC)cc1 [Verbindung 7, (E)-1-[4'-(2-Diethylaminoethoxy)phenyl]-1-(3'-hydroxyphenyl)-2-(4'methoxyphenyl)-but-l-en] | – | – | – | – | – | – | – | – | 4 | 37 | 91 | – | 41
